Test results as given in patent US12391664B2, “GluN2C/D subunit selective antagonists of the N-methyl-D-aspartate receptor” (Emory University, priority 2018, dated 2025).
Where two headings read alike, the source gives them in different places.

Legend:
Format in all cases: cell-based
[1] = target: T1, recombinant rat GluN1/GluN2D (Rattus norvegicus, UniProt Q62645); assay: Two-electrode voltage-clamp recordings in Xenopus laevis oocytes, GluN2D; conditions: for GluN2D IC50: oocytes, 100 μM glutamate and 30 μM glycine; for I3 μM/Icontrol (mean ± SEM, %) GluN2D: 3 μM compound with 100 μM glutamate and 30 μM glycine, control set as 1; for fold more potent than the (+)-enantiomer at GluN2D: (−)- versus (+)-enantiomer
T1 construct: expressed in transfected cells; host or cells: Xenopus laevis oocytes injected with cRNA (GluN1:GluN2 ratio 1:2)
Description: (§1) All target compounds were evaluated for activity by the Traynelis laboratory at Emory University using two-electrode voltage-clamp recordings performed in Xenopus laevis oocytes expressing recombinant GluN2A-D subunits (Table 1). […] Two ester compounds 997-65 and 997-66 also performed no inhibition at GluN2A to GluN2D receptors. […] Consequently, for the compounds that Acker et al. already published, it was necessary to increase the concentration to 100 μM when collecting data for a concentration effect curve. […] Therefore, under this condition, we can only conclude that compound 997-67 remained potent at GluN2C/D-containing receptors, but its selectivity over GluN2A- and GluN2B-containing receptors could not be compared to 997-57. […] Finally, replacing the carboxylic acid to the bio-isostere amide yielded compounds 997-96 and 997-115, which dropped the potency 2- to 4-fold in comparison to their corresponding acids 997-74 and 997-114.
(§2) Two-electrode voltage-clamp recordings were performed in Xenopus laevis oocytes that were injected with mRNA to express recombinant rat GluN1/GluN2A, GluN1/GluN2B, GluN1/GluN2C, and GluN1/GluN2D. The recordings using unfertilized oocytes from Xenopus laevis were permitted by Emory University Institutional Animal Care and Use Committee (IACUC). An automatic injector (Nanoject II, Drummond Scientific) was used for cRNA injection using the pipettes filled with mineral oil. The cRNA that transcribed in vitro via the mMessage Machine kit (Ambion) was diluted with nuclease-free water, and then injected at GluN1/GluN2 with a ratio of 1:2. The oocytes were stored in Barth's solution that contained 88 mM NaCl, 5.0 mM Tris-HCl, 2.4 mM NaHCO3, 1.0 mM KCl, 0.84 mM MgSO4, 0.41 mM CaCl2, 0.33 mM Ca(NO3)2, 0.1 mg/ml gentamycin sulfate, 1.0 U/ml penicillin, and 1 μg/ml streptomycin at a pH of 7.4 and temperatures of 15-17° C. for two to five days before the two-electrode voltage-clamp recordings. When recording, the oocytes were placed in a perfusion chamber and continually washed with the recording solution comprised of 90 mM NaCl, 1.0 mM KCl, 0.50 mM BaCl2, 0.005 mM EDTA, and 10 mM HEPES at a pH of 7.4 and a temperature of 23° C. Glass electrodes with a tip resistance of 0.5 to 2.5 MΩ were obtained from thin-walled glass capillary tubes. Voltage electrodes and current electrodes were filled with 0.3 M and 3.0 M KCl, respectively. The recordings were executed with the oocytes membrane potential holding at −40 m V by an OC-725 amplifier (Warner Instrument Co). All compounds were dissolved in dimethyl sulfoxide (DMSO) as 20 mM stock solutions and future diluted to reach the desired concentration (0.05-0.5% (vol/vol) DMSO) in recording solution comprised of 30 μM glycine and 100 μM glutamate. Each compound was recorded 3-7 times in the least 4 oocytes from at least 2 different Xenopus laevis.
(§3) To evaluate the inhibition of compounds, the concentration-response curve was fitted with the average two-electrode voltage-clamp recording results with the equation
(§4) [formula] • where IC50 is the concentration of compounds that inhibit half maximal of the current response and N is the Hill slope.

[2] = target: T2, recombinant rat GluN1/GluN2D (Rattus norvegicus, UniProt P35439+Q62645); assay: as above
T2 construct: expressed in transfected cells; host or cells: Xenopus laevis oocytes injected with cRNA (GluN1:GluN2 ratio 1:2)
Description: as §1, §2, §3, §4

[3] = target: T3, recombinant rat GluN1/GluN2A (Rattus norvegicus, UniProt Q00959); assay: Two-electrode voltage-clamp recordings in Xenopus laevis oocytes, GluN2A; conditions: for GluN2A IC50: oocytes, 100 μM glutamate and 30 μM glycine; for I3 μM/Icontrol (mean ± SEM, %) GluN2A: 3 μM compound with 100 μM glutamate and 30 μM glycine, control set as 1
T3 construct: expressed in transfected cells; host or cells: Xenopus laevis oocytes injected with cRNA (GluN1:GluN2 ratio 1:2)
Description: as §1, §2, §3, §4

[4] = target: T4, recombinant rat GluN1/GluN2B (Rattus norvegicus, UniProt Q00960); assay: Two-electrode voltage-clamp recordings in Xenopus laevis oocytes, GluN2B; conditions: for GluN2B IC50: oocytes, 100 μM glutamate and 30 μM glycine; for I3 μM/Icontrol (mean ± SEM, %) GluN2B: 3 μM compound with 100 μM glutamate and 30 μM glycine, control set as 1
T4 construct: expressed in transfected cells; host or cells: Xenopus laevis oocytes injected with cRNA (GluN1:GluN2 ratio 1:2)
Description: as §1, §2, §3, §4

[5] = target: T5, recombinant rat GluN1/GluN2C (Rattus norvegicus, UniProt Q00961); assay: Two-electrode voltage-clamp recordings in Xenopus laevis oocytes, GluN2C; conditions: for GluN2C IC50: oocytes, 100 μM glutamate and 30 μM glycine; for I3 μM/Icontrol (mean ± SEM, %) GluN2C: 3 μM compound with 100 μM glutamate and 30 μM glycine, control set as 1
T5 construct: expressed in transfected cells; host or cells: Xenopus laevis oocytes injected with cRNA (GluN1:GluN2 ratio 1:2)
Description: as §1, §2, §3, §4

[6] = target: T6, recombinant rat GluN1/GluN2C (Rattus norvegicus, UniProt P35439+Q00961); assay: as above
T6 construct: expressed in transfected cells; host or cells: Xenopus laevis oocytes injected with cRNA (GluN1:GluN2 ratio 1:2)
Description: as §1, §2, §3, §4

[7] = target: T7, recombinant rat GluN1/GluN2B (Rattus norvegicus, UniProt P35439+Q00960); assay: Two-electrode voltage-clamp recordings in Xenopus laevis oocytes, GluN2B; conditions: oocytes, 100 μM glutamate and 30 μM glycine
T7 construct: expressed in transfected cells; host or cells: Xenopus laevis oocytes injected with cRNA (GluN1:GluN2 ratio 1:2)
Description: as §1, §2, §3, §4

[8] = oocytes, 100 μM glutamate and 30 μM glycine, read-out: GluN2D IC50
[9] = oocytes, 100 μM glutamate and 30 μM glycine, read-out: GluN2C IC50
[10] = mean IC50 with bottom and top 95% confidence interval, read-out: Avg. GluN2D IC50 (95% CI)
[11] = read-out: IC50 at GluN2D-containing receptors
[12] = mean IC50 with bottom and top 95% confidence interval, read-out: Avg. GluN2C IC50 (95% CI)

T7 sequence (Q00960 27-1482, other chains not shown): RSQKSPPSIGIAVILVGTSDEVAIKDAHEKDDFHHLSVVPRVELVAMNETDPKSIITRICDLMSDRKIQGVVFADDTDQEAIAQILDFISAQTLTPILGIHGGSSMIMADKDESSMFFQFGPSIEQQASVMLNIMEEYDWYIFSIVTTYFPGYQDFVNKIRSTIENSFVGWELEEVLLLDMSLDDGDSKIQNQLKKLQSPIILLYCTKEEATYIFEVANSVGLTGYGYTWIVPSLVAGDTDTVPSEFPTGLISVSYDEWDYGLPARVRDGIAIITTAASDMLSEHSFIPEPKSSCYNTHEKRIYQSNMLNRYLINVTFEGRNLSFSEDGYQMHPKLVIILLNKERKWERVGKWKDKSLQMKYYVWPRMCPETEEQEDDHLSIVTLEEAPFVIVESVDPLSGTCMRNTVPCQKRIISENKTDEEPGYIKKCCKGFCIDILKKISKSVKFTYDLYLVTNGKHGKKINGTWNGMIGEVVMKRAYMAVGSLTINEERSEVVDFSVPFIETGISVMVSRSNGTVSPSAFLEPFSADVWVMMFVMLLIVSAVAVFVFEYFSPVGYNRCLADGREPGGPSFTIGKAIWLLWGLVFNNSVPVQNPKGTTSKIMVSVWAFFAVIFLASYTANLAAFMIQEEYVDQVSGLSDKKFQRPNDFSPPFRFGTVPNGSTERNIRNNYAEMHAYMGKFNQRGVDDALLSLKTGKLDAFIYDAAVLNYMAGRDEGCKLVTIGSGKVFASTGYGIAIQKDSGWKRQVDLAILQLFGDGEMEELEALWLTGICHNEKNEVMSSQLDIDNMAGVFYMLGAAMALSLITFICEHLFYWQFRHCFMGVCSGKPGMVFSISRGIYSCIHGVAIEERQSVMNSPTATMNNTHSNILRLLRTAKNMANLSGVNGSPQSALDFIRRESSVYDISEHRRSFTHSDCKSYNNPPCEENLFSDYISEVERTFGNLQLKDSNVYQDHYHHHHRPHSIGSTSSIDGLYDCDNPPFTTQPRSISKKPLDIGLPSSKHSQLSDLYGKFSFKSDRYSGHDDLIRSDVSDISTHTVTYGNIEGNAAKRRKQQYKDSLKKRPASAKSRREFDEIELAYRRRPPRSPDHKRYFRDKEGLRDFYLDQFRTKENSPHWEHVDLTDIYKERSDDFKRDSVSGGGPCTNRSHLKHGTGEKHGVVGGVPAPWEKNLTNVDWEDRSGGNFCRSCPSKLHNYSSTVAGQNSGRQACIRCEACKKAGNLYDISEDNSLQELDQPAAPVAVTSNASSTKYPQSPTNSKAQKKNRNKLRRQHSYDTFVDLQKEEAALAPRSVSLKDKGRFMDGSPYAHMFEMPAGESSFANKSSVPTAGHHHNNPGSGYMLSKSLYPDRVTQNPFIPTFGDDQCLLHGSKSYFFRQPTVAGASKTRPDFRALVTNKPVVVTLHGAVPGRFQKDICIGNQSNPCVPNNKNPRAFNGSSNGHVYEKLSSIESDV
T4 sequence (Q00960 27-1482, other chains not shown): as above
T5 sequence (Q00961 20-1237, other chains not shown): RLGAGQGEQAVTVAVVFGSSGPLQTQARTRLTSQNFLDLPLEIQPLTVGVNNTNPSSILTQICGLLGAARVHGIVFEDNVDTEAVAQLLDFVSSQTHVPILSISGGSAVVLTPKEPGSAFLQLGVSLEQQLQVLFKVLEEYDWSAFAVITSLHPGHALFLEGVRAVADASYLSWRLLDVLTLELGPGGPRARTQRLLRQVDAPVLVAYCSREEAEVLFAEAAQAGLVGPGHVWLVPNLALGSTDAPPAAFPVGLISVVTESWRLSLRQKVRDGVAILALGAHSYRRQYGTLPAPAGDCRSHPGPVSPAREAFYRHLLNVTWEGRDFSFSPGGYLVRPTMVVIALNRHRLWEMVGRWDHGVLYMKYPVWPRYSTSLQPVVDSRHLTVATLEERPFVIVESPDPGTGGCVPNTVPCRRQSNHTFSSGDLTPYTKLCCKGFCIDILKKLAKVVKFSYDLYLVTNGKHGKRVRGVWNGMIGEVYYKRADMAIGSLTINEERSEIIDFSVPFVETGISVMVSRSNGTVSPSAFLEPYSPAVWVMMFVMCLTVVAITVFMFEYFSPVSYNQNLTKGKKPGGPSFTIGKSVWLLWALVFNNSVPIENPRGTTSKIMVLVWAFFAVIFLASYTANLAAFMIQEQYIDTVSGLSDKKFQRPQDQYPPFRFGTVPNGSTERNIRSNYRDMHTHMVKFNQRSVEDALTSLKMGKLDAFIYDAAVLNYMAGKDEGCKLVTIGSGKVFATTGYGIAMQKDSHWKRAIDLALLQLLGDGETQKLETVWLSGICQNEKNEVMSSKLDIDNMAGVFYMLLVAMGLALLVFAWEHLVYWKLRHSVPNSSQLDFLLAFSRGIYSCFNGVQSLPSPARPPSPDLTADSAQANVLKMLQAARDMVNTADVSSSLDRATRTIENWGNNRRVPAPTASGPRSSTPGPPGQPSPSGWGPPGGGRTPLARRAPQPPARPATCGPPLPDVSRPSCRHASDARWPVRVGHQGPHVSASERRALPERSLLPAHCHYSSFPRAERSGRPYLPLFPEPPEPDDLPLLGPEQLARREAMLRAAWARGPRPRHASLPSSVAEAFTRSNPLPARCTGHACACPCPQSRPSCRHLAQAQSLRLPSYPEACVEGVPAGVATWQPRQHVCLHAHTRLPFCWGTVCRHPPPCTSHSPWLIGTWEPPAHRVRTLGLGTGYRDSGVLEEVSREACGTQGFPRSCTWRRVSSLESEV
T6 sequence (Q00961 20-1237, other chains not shown): as above

SMILES | IC50 [2, 8] [µM] | IC50 [6, 9] [µM] | IC50 [2, 10] [µM] | 2B IC50 / 2D IC50 ([1]; ratio of IC50 values) | IC50 [7] [µM] | GluN2A IC50 [3] | also measured
O=C(O)CC(F)(F)C(=O)N1N=C(c2c(-c3ccc(Cl)cc3)c3ccccc3[nH]c2=O)C[C@H]1c1ccc(Cl)cc1 [(−)-997-74] | – | 0.094 | 0.055 | – | – | – | I3 μM/Icontrol (mean ± SEM, %) GluN2D [1]: 3.5 ± 1.0%; fold more potent than the (+)-enantiomer at GluN2D [1]: 85 fold; IC50 [2, 11]: 0.046 µM; I3 μM/Icontrol (mean ± SEM, %) GluN2A [3]: 67 ± 3.9%; I3 μM/Icontrol (mean ± SEM, %) GluN2B [4]: 73 ± 4.8%; I3 μM/Icontrol (mean ± SEM, %) GluN2C [5]: 9.3 ± 1.8%; IC50 [6, 12]: 0.11 µM
O=C(CC(F)(F)CO)N1N=C(c2c(-c3ccc(Cl)cc3)c3ccccc3[nH]c2=O)CC1c1ccc(Cl)cc1 (single isomer, unassigned; (+)) [(+)-997-67] | 3.6 | 8.5 | 7.02 | – | – | – | I3 μM/Icontrol (mean ± SEM, %) GluN2D ([1]; listed as (+)-67): 57 ± 3.5%; I3 μM/Icontrol (mean ± SEM, %) GluN2A ([3]; listed as (+)-67): 98 ± 2.1%; I3 μM/Icontrol (mean ± SEM, %) GluN2B ([4]; listed as (+)-67): 87 ± 2.8%; I3 μM/Icontrol (mean ± SEM, %) GluN2C ([5]; listed as (+)-67): 74 ± 2.1%
Cc1c(C2=NNC(c3ccc(Cl)cc3)C2)c(=O)[nH]c2ccccc12 (stereo not drawn) [997-77, 3-(5-(4-chlorophenyl)-4,5-dihydro-1H-pyrazol-3-yl)-4-methylquinolin-2(1H)-one] | – | – | – | – | – | NE (NE indicates less than 50% inhibition at 30 μM.) | GluN2D IC50 [1]: NE (NE indicates less than 50% inhibition at 30 μM.); GluN2B IC50 [4]: NE (NE indicates less than 50% inhibition at 30 μM.); GluN2C IC50 [5]: NE (NE indicates less than 50% inhibition at 30 μM.)
O=C(O)CC(F)(F)C(=O)N1N=C(c2c(-c3ccc(Cl)cc3)c3ccccc3[nH]c2=O)C[C@@H]1c1ccc(Cl)cc1 [(+)-997-74] | 3.9 | 3.4 | 2.24 | – | – | – | I3 μM/Icontrol (mean ± SEM, %) GluN2D [1]: 55 ± 2.7%; I3 μM/Icontrol (mean ± SEM, %) GluN2A [3]: 95 ± 0.47%; I3 μM/Icontrol (mean ± SEM, %) GluN2B [4]: 87 ± 1.4%; I3 μM/Icontrol (mean ± SEM, %) GluN2C [5]: 56 ± 3.8%; IC50 [6, 12]: 3.1 µM
O=C(CC(F)(F)CO)N1N=C(c2c(-c3ccc(Cl)cc3)c3ccccc3[nH]c2=O)CC1c1ccc(Cl)cc1 (single isomer, unassigned; (-)) [(−)-997-67] | 0.62 | 1.4 | 0.97 | – | – | – | I3 μM/Icontrol (mean ± SEM, %) GluN2D ([1]; listed as (−)-67): 26 ± 3.2%; fold more potent than the (+)-enantiomer at GluN2D [1]: 6 fold; I3 μM/Icontrol (mean ± SEM, %) GluN2A ([3]; listed as (−)-67): 100 ± 0.89%; I3 μM/Icontrol (mean ± SEM, %) GluN2B ([4]; listed as (−)-67): 95 ± 2.2%; I3 μM/Icontrol (mean ± SEM, %) GluN2C ([5]; listed as (−)-67): 42 ± 2.8%; IC50 [6, 12]: 2.71 µM

Continued, in another order:

IC50 [2, 8] [µM] | IC50 [6, 9] [µM] | IC50 [2, 10] [µM] | 2B IC50 / 2D IC50 ([1]; ratio of IC50 values) | IC50 [7] [µM] | SMILES | GluN2A IC50 [3] | also measured
8 | 8 | – | – | – | O=C(O)CCC(=O)N1N=C(c2c(-c3ccc(Cl)cc3)c3ccccc3[nH]c2=O)CC1c1ccc(Cl)nc1 (stereo not drawn) [997-92, 4-(3-(4-(4-chlorophenyl)-2-oxo-1,2-dihydroquinolin-3-yl)-5-(6-chloropyridin-3-yl)-4,5-dihydro-1H-pyrazol-1-yl)-4-oxobutanoic acid] | NE (NE indicates less than 50% inhibition at 30 μM.) | GluN2D IC50 [1]: weak activity; GluN2B IC50 [4]: NE (NE indicates less than 50% inhibition at 30 μM.); GluN2C IC50 [5]: weak activity
6.2 | 4.8 | – | 1 | 6.4 | O=C(O)CC(F)(F)C(=O)N1N=C(c2ccccc2-c2ccc(Cl)cc2)CC1c1ccc(Cl)cc1 (stereo not drawn) [997-95, 4-(3-(4′-chloro-[1,1′-biphenyl]-2-yl)-5-(4-chlorophenyl)-4,5-dihydro-1H-pyrazol-1-yl)-3,3-difluoro-4-oxobutanoic acid] | – | 2A IC50 / 2D IC50 ([1]; ratio of IC50 values): 5
7.41 | 12.1 | – | 3 | 23.1 | O=C(O)CC(F)(F)C(=O)N1N=C(c2ccccc2-c2ccc(Cl)cc2)CC1c1ccc(F)cc1 (stereo not drawn) [997-116, 4-(3-(4′-chloro-[1,1′-biphenyl]-2-yl)-5-(4-fluorophenyl)-4,5-dihydro-1H-pyrazol-1-yl)-3,3-difluoro-4-oxobutanoic acid] | NE (NE indicates less than 50% inhibition at 30 μM.) | –
3.57 | 3.63 | – | – | 14.8 | O=C(O)CC(F)(F)C(=O)N1N=C(c2ccccc2-c2ccc(C(F)(F)F)cc2)CC1c1ccc(Cl)cc1 (stereo not drawn) [997-124, 4-(5-(4-chlorophenyl)-3-(4′-(trifluoromethyl)-[1,1′-biphenyl]-2-yl)-4,5-dihydro-1H-pyrazol-1-yl)-3,3-difluoro-4-oxobutanoic acid] | NE (NE indicates less than 50% inhibition at 30 μM.) | –
4.67 | 7.34 | – | – | 15.6 | O=C(O)CC(F)(F)C(=O)N1N=C(c2ccccc2-c2cc(Cl)cc(Cl)c2)CC1c1ccc(Cl)cc1 (stereo not drawn) [997-123, 4-(5-(4-chlorophenyl)-3-(3′,5′-dichloro-[1,1′-biphenyl]-2-yl)-4,5-dihydro-1H-pyrazol-1-yl)-3,3-difluoro-4-oxobutanoic acid] | NE (NE indicates less than 50% inhibition at 30 μM.) | –
19 | 20 | – | 3 | 54 | O=c1[nH]c2ccccc2c(-c2ccc(Cl)cc2)c1C1=NNC(c2ccncc2)C1 (stereo not drawn) [997-78, 4-(4-chlorophenyl)-3-[5-(pyridin-4-yl)-4,5-dihydro-1H-pyrazol-3-yl]quinolin-2(1H)-one] | NE (NE indicates less than 50% inhibition at 30 μM.) | GluN2D IC50 [1]: weak potency; GluN2B IC50 [4]: weak potency; GluN2C IC50 [5]: weak potency
– | 0.43 | – | 625 | 100 | O=C(O)CC(F)(F)C(=O)N1N=C(c2c(-c3ccc(Cl)cc3)c3ccccc3[nH]c2=O)CC1c1ccc(Cl)s1 (stereo not drawn) [997-110, 4-(3-(4-(4-chlorophenyl)-2-oxo-1,2-dihydroquinolin-3-yl)-5-(5-chlorothiophen-2-yl)-4,5-dihydro-1H-pyrazol-1-yl)-3,3-difluoro-4-oxobutanoic acid] | – | selectivity at GluN2D- over GluN2B-containing receptor [1]: 625 fold; fold decrease of potency at GluN2D in comparison to 997-74 ([1]; comparator 997-74): 3 fold; IC50 [2, 11]: 0.16 µM
